From publication PMC4519791, “Functional diversity and properties of multiple xylanases from Penicillium oxalicum GZ-2” (Scientific Reports, 2015)

Key:
Type in all cases: biochemical
xyn11B = target: T1, xyn11B (Penicillium oxalicum, UniProt E7EF85); test: TLC of hydrolysis products; conditions: 1 mg/ml substrate, 12 h; 50 mM acetate pH 4.0, 40 °C (Figure 7 legend) or optimal pH, 45 °C (Methods)
T1 construct: gene xynB; mature enzyme, GH11 catalytic domain, Ser/Thr linker and CBM1; pPICZalphaA alpha-factor secretion, 6xHis tag, Pichia pastoris, Ni-NTA

xyn11A = target: T2, xyn11A (Penicillium oxalicum, UniProt U3MZH8); test: TLC of hydrolysis products; conditions: 1 mg/ml substrate, 12 h; 50 mM acetate pH 4.0, 40 °C (Figure 7 legend) or optimal pH, 45 °C (Methods)
T2 construct: GH11 catalytic domain without CBM; 23 kDa by SDS-PAGE; pPICZalphaA alpha-factor secretion, 6xHis tag, Pichia pastoris, Ni-NTA

xyn10A = target: T3, xyn10A (Penicillium oxalicum, UniProt U3N115); test: TLC of hydrolysis products; conditions: 1 mg/ml substrate, 12 h; 50 mM acetate pH 4.0, 40 °C (Figure 7 legend) or optimal pH, 45 °C (Methods)
T3 construct: mature enzyme, GH10 catalytic domain without CBM; pPICZalphaA alpha-factor secretion, 6xHis tag, Pichia pastoris, Ni-NTA

xyn10B = target: T4, xyn10B (Penicillium oxalicum, UniProt U3MZ77); test: p-nitrophenyl substrate hydrolysis (specific activity); conditions: 10 mM substrate; optimal temperature, pH 5.0
T4 construct: mature enzyme, GH10 catalytic domain, Ser/Thr linker and CBM1; pPICZalphaA alpha-factor secretion, 6xHis tag, Pichia pastoris, Ni-NTA
T4 sequence (U3MZ77 23-410): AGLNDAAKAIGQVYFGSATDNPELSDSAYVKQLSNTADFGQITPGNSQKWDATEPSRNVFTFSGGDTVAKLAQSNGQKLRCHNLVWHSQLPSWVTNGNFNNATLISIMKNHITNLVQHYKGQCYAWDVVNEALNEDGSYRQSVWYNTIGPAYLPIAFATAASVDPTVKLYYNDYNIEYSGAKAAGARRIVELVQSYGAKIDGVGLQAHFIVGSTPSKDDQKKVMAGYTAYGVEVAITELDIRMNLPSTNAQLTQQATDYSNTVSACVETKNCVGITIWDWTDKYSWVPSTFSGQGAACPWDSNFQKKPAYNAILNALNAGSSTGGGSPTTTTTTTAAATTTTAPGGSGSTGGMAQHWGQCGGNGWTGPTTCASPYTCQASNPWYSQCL

T3 sequence (U3N115 20-330): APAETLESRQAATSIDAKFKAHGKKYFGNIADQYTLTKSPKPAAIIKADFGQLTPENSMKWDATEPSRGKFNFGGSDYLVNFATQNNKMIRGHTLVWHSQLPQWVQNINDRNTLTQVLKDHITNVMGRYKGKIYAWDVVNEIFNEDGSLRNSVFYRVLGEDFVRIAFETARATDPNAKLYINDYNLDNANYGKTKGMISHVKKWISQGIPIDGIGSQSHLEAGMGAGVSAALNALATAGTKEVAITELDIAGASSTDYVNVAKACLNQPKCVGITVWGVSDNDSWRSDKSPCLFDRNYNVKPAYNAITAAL
T1 sequence (E7EF85 20-310): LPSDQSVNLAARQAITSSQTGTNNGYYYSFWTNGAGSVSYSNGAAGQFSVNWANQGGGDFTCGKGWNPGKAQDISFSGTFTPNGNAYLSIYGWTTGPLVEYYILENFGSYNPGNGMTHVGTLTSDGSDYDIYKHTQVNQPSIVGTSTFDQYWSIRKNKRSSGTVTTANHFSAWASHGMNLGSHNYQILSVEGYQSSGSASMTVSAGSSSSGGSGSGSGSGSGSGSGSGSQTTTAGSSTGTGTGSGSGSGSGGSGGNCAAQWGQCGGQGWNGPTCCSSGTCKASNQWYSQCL
T2 sequence (U3MZH8 17-211): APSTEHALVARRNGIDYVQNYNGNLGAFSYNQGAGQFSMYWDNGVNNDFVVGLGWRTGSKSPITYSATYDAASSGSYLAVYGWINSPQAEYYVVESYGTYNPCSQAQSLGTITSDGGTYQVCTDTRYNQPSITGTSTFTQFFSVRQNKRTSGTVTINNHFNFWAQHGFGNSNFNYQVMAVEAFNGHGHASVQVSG

| SMILES | TLC of hydrolysis products (xyn11B) | TLC of hydrolysis products (xyn11A) | TLC of hydrolysis products (xyn10A) | p-nitrophenyl substrate hydrolysis (specific activity) (xyn10B) |
| --- | --- | --- | --- | --- |
| OC1CO[C@@H](OC2CO[C@@H](OC3CO[C@@H](OC4CO[C@@H](OC5CO[C@@H](OC6COC(O)C(O)C6O)C(O)C5O)C(O)C4O)C(O)C3O)C(O)C2O)C(O)C1O (some centres unmarked) [X6, xylohexaose] | hydrolytic products obtained with GH11 xylanase (xyn11B) was similar to that of xyn11A | X4, X5 and X6 were hydrolyzed to X2 and X3 through xyn11A | the two GH10 enzymes rapidly degraded X3, X4, X5 and X6 | – |
| OC1OC[C@@H](O[C@@H]2OC[C@@H](O[C@@H]3OC[C@@H](O)[C@H](O)[C@H]3O)[C@H](O)[C@H]2O)[C@H](O)[C@H]1O (some centres unmarked) [X3, xylotriose] | – | – | the two GH10 enzymes rapidly degraded X3, X4, X5 and X6 | – |
| O=[N+]([O-])c1ccc(O[C@@H]2OC[C@@H](O)[C@H](O)[C@H]2O)cc1 [pNPX, p-nitrophenyl-β-D-xylopyranoside] | – | – | – | Although xyn10B degraded pNPX and pNPC, the other three enzymes were not active |
| O=[N+]([O-])c1ccc(O[C@@H]2O[C@H](CO)[C@@H](O[C@@H]3O[C@H](CO)[C@@H](O)[C@H](O)[C@H]3O)[C@H](O)[C@H]2O)cc1 [pNPC, p-nitrophenyl β-D-cellobioside] | – | – | – | Although xyn10B degraded pNPX and pNPC, the other three enzymes were not active |
| OC1OC[C@@H](O[C@@H]2OC[C@@H](O[C@@H]3OC[C@@H](O[C@@H]4OC[C@@H](O)[C@H](O)[C@H]4O)[C@H](O)[C@H]3O)[C@H](O)[C@H]2O)[C@H](O)[C@H]1O (some centres unmarked) [X4, xylotetraose] | hydrolytic products obtained with GH11 xylanase (xyn11B) was similar to that of xyn11A | X4, X5 and X6 were hydrolyzed to X2 and X3 through xyn11A | – | – |
